The results in this text go back to patent publication US12097174B2, “Methods and agents that enhance myogenic progenitor cell engraftment” (President and Fellows of Harvard College, priority 2018, dated 2024).

“Also recorded” adds a separate entry of the source.

For test [1], the system named is sapje-like (sap^c/100) fish. Nature of the test: Swimming performance of sapje-like fish before and after transplantation of treated ZeMPCs. It is filed as in vivo, zebrafish. The settings on record: cells treated before transplant; tested 7 days after transplant, flow about 5.5 L/min. The method, then:
Finally, to assess the functionality of myogenic precursors exposed to NFA and/or LPA prior to muscle engraftment, the swimming performance of sapje-like fish was evaluated before and after transplantation. […] Recipient sapje-like fish were irradiated and injected with healthy ZeMPCs, exposed prior to transplant to NFA, LPA or vehicle alone, on both flanks at 3 dorsal points on each side-in the tail, beneath the dorsal fin, and in the trunk-with 25 cells per injection. Immediately prior to transplant, and again 7 days after transplant, muscle function was tested in a modified Blazka-type swim chamber, in which a flow rate of approximately 5.5 L/min was introduced to test swimming performance (FIG. 16A). […] Because only the treated cells were transplanted, after removal of the compounds, it was concluded from these studies that the swimming performance of these transplanted sapje-like fish was improved as a result of better engraftment by NFA-treated or LPA-treated ZeMPCs. Juvenile zebrafish from a sapje-like transgenic line were fin-clipped and genotyped to identify heterozygotes. A flow-through modified Blazka-type swim chamber was creating using a horizontal acrylic tank with dimensions of 350 mm 1×47 mm w×90 mm d. […] The raw digital file was then analyzed for movement within the swim area. The distance from the flow source was quantified using MATLAB (MathWorks).

Test [2] concerns mouse satellite cells. The experiment in a line: RNA sequencing of treated mouse satellite cells. The format is cell-based. An excerpt: (§1) To gain insight into the mechanisms through which LPA and NFA treatment might enhance donor cell engraftment in vertebrate muscle, RNA sequencing analysis were next performed in treated ZeMPCs and in mouse satellite cells. Comparison of differential gene expression in NFA-treated or LPA-treated cells to vehicle-treated cells indicated upregulation of calcium-dependent genes in response to these compounds in both ZeMPCs (FIG. 21) and mouse satellite cells (FIGS. 15A and 15B).
(§2) Isolated mouse muscle satellite cells and ZeMPCs were used to prepare RNA after in vitro chemical treatment. Total RNA was isolated by the micro RNeasy kit (QIAGEN). cDNA was prepared using SMART Seq v4 Ultra Low RNA-Seq kit for 48 reactions (Takara) and a Nextera kit was used for library construction. Sequencing data FASTQ files for samples were processed in tophat-cufflinks workflow in a Linux server operating system to output gene-level abundance estimates and statistical inference as gene-level raw counts. Those raw counts for samples were input into the cuffdiff for differential gene expression analysis. The assigned GEO accession number for the RNA sequencing data is GSE143801.

Test [3] concerns mouse satellite cells. The experiment in a line: Mouse satellite cell transplantation into pre-injured TA muscle, engraftment by bioluminescence imaging (BLI). The format is in vivo. The following applies: for BLI radiance (mean±SEM): 10 μM NFA (n=13) or 5 μM LPA (n=17) prior to transplant, vehicle 8,214,000±1,462,346; for engraftment efficiency of mouse satellite cells: 4 h at 37° C. with 10 μM NFA or 5 μM LPA, 5000 cells per recipient. The method, then: Specifically, BLI radiance (mean±SEM) for muscle precursors treated with 10 μM NFA or 5 μM LPA prior to transplant were 27,236,923±6,849,754 p/s (n=13) and 25,637,059±4,410,195 p/s (n=17), respectively, in comparison to 8,214,000±1,462,346 p/s (n=15) vehicle-treated cells (1-way ANOVA between vehicle-treated group and either NFA or LPA treated group, p≤0.01) (FIGS. 8A-8C).
To this end, mouse satellite cells were again sorted from double-transgenic (luc+GFP+) mice and exposed them to NFA, LPA, or vehicle (DMSO) under the optimal dose conditions established using the fish model (see above; 4 h. treatment at 37° C. with 10 μM of NFA or 5 μM of LPA), prior to transplant. Compound-treated cells were then recovered and, after washing out the media containing the compounds (NFA, LPA or DMSO), counted and transplanted at 5000 cells per recipient into the pre-injured TA muscles of non-transgenic FVB hosts. The kinetics of muscle engraftment were subsequently assessed by weekly BLI imaging of transplanted limbs. Similar to the fish experiments, both NFA and LPA enhanced the engraftment efficiency of mouse satellite cells in these in vivo transplantation assays (FIGS. 14C and 14D), indicating conserved effects of these pro-myogenic compounds on mammalian muscle precursor cells.
Mouse satellite cells were isolated as previously described (Maesner et al., 2016; Sherwood et al., 2004; Xu et al., 2013). 25 μl (0.03 mg/ml) of cardiotoxin (CDTX) (Latoxan) was injected 24 h prior to transplantation into the TA muscle of recipient mice (FVB/NJ). Luc-GFP tagged satellite cells were isolated and plated on a collagen/laminin-coated plate and treated with NFA (10 μM), LPA (5 μM) or DMSO, as the vehicle control, in culture media for 4 hours at 37° C. The culture media contained 78% F10 (GIBCO), 20% horse serum (Atlanta Biologics), 1% penicillin-streptomycin (Invitrogen), 1% GlutaMAX (Invitrogen), and 5 ng/ml bFGF (Sigma). After 4 hours, cells were washed with DPBS, harvested, and counted, followed by transplantation of 5000 satellite cells intramuscularly into the CDTX pre-injured TA of FVB recipients.
Mice were anesthetized with isoflurane and weighed. 150 mg/kg of luciferin (Goldbio) was administered by IP injection. BLI was acquired using IVIS Spectrum every 2 minutes, at F-stop=1.0 at 5 min after luciferin injection. The acquired images were analyzed and the highest captured radiance in the region of interest (ROI) was measured.

In the next test the test system is ZeMPCs. The experiment in a line: RNA sequencing of treated ZeMPCs. It is filed as cell-based, zebrafish.
Text: as §1, §2

The next test relates to muscle progenitor cells. Nature of the test: Measurement of Ca2+ transients in fura-2 AM-loaded muscle progenitor cells. It is filed as cell-based. The method, then: Measurement of Ca2+ transients was performed in fura-2 AM-loaded cells.
Thus, it is possible that the enhanced engraftment capacity of muscle progenitor cells exposed to these compounds involves a common Ca^2+-dependent signaling events (FIG. 9).

Regarding `O=C(O)c1cccnc1Nc1cccc(C(F)(F)F)c1` [NFA, niflumic acid], the “swimming performance vs fish engrafted with vehicle-treated cells” value in test [1] is given as “better swimming performance; also recorded: performed significantly better”. In addition, the “expression of calcium-dependent genes vs vehicle-treated cells” value in the test on mouse satellite cells [2] and in the test with ZeMPCs was “upregulation” in each case. For the same compound, in the test with mouse satellite cells [3], the “BLI radiance (mean±SEM)” value is 27,236,923±6,849,754 p/s. For the same compound, the “engraftment efficiency of mouse satellite cells” value with mouse satellite cells [3] was “enhanced”. Besides, the “cytoplasmic Ca2+ concentration” value with muscle progenitor cells is recorded as “stimulate increases”.

For the compound lysophosphatidic acid [LPA], the “swimming performance vs fish engrafted with vehicle-treated cells” value in test [1] was “better swimming performance; also recorded: performed significantly better”. In the test on mouse satellite cells [2], the “expression of calcium-dependent genes vs vehicle-treated cells” value was “upregulation”; the “expression of myoblast fusion related genes, including myomaker (Tmem8c) and Ccl8” value is on record as “upregulated”. In the test on mouse satellite cells [3], the “BLI radiance (mean±SEM)” value was 25,637,059±4,410,195 p/s and the “engraftment efficiency of mouse satellite cells” value is recorded as “enhanced”. In the test on ZeMPCs, the “expression of calcium-dependent genes vs vehicle-treated cells” value is “upregulation”. Also, in the test on muscle progenitor cells, the “cytoplasmic Ca2+ concentration” value was “stimulate increases”.
